Data on 3 compounds can be found in PubChem BioAssay (NCI).

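Cultured in 96-well plates, cells were exposed to test compound for 48 hours across five concentrations. At the GI50, growth is halved. TGI: total growth inhibition.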

Holding throughout (experiment): NCI anticancer screen, dose series, 48 h
The subject of test [1] is ACHN renal.
The test system of test [2] is CCRF-CEM leukemia.
In test [3] the test system is KM12 colon.
For test [4], the system named is LOX IMVI melanoma.
Test [5] deals with MDA-MB-435.
The test system of test [6] is SF-268 CNS.
Test [7] deals with SK-MEL-28 melanoma.
Test [8] relates to SK-MEL-5 melanoma.
Test [9] has as its system UACC-62 melanoma.
The subject of test [10] is UO-31 renal.

Consider `C=C(CNC(=O)c1ccccc1)c1ccc(C(=O)Nc2ccccc2N)cc1`, for which the GI50 in test [1] is 3.86 µM; in test [2], 0.493 µM; in [3] it was 5.11 µM; in test [4] it was 6.1 µM; in [5] it was 6.88 µM; in test [6] it was 11.7 µM. Moreover, the GI50 is 14 µM in test [7], 2.67 µM in test [8], 1.75 µM in test [9] and 2.78 µM in test [10]. Moreover, the TGI is over 100 µM in test [1]; 8.38 µM in test [2]; over 100 µM in [3]; 73.2 µM in [4]; over 100 µM in [5]; over 100 µM in test [6]. In addition, the TGI in test [7] was over 100 µM; in test [8] it was 14.9 µM; in test [9], 11.4 µM; in [10], over 100 µM.

With `COc1ccc(-c2cc(-c3cccc(NS(C)(=O)=O)c3)nc(N)c2C#N)cc1`, the GI50 in test [1] was 0.0789 µM; in test [2], 0.0875 µM; in test [3], 0.118 µM; in test [4] it was 0.0743 µM; in test [5], 0.0256 µM; in [6], 0.281 µM. In addition, the GI50 is 0.18 µM in [7], 0.113 µM in test [8], 0.0459 µM in test [9] and 0.124 µM in test [10]. The TGI in test [1] is 43.9 µM; in test [2], over 100 µM; in test [3], 9.12 µM; in [4] it was over 37.5 µM; in [5], 0.121 µM; in [6] it was 22 µM. Further, the TGI in test [7] is 47.2 µM; in [8] it was 4.92 µM; in test [9] it was 15.9 µM; in test [10], over 43.7 µM.

Consider `CCOc1nccc2c1nc(-c1nonc1N)n2CC`, for which the GI50 in test [1], in test [2], in test [3], in test [4], in test [5] and in [6] was over 25 µM in each case. Moreover, the GI50 in test [7] is over 25 µM; in test [8] it was over 25 µM; in [9], over 25 µM; in test [10], over 18.4 µM. Moreover, the TGI in [1], in test [2], in test [3], in test [4], in test [5] and in test [6] was over 25 µM in each case. For the same compound, the TGI in test [7], in test [8], in test [9] and in [10] was over 25 µM in each case.
